Values of other authors in patent publication EP2018866A1, “Pharmaceutical compositions containing voriconazole” (SANDOZ AG, priority 2007, dated 2009).
In brackets after ≈: the same amount, converted by molar mass. Read-outs that look alike come from different tables or passages of the source.

aqueous solubility (at a pH 3): 200 µg/mL (≈ 573 µM)
aqueous solubility (at a pH 7): 610 µg/mL (≈ 1750 µM)
SMILES: C[C@@H](c1ncncc1F)[C@](O)(Cn1cncn1)c1ccc(F)cc1F [Voriconazole, (2R,3S)-2-(2,4-Difluorophenyl)-3-(5-fluoro-4-pyrimidinyl)-1-(1H-1,2,4-triazol-1-yl)-butan-2-ol]
